Measurements reported in US9540354B2, “Diamide inhibitors of cytochrome P450” (SEQUOIA PHARMACEUTICALS, INC., priority 2008, dated 2017).

melting point: 85.5 to 86 °C
Structure (SMILES): Cc1cc(CC(C(=O)NCc2ccc3occc3c2)C(=O)N(CC(C)C)CC(C)C)n(C)n1 (stereo not shown) [Cmpd. 9]
